{
  "source": "patent US7981930B2",
  "about": "“Compositions and kits for treating influenza” (Adamas Pharmaceuticals, Inc., priority 2007, dated 2011)",
  "key": {"[1]": {"system": "A/Sydney/05/97 H3N2 virus", "format": "cell-based", "conditions": "for increase in sensitivity of the virus to the drug in triple combination compared to monotherapy: drug used with the two other drugs vs. monotherapy; for concentration range at which synergy was seen: drugs in combination, MDCK 96-well"}, "[2]": {"system": "A/Victoria/3/75 (H3N2) virus", "experiment": "Mouse model of influenza infection, treatment started before infection (Example 3A)", "format": "in vivo, mice"}, "A/Albany/1/98 (H3N2)": {"system": "A/Albany/1/98 (H3N2)", "experiment": "microbe, parasite or virus in culture", "format": "cell-based", "conditions": "for EC50: Influenza A virus, H3N2, MDCK; for EC25, Target serum C: molar equivalent of in vitro EC25; for EC75, Target serum C: molar equivalent of in vitro EC75; for EC25, In vitro C / EC75, In vitro C: MDCK cells in flasks, virus reduction at 72 hrs"}, "[3]": {"system": "wild type A/Albany (H3N2) strain", "experiment": "Hollow fiber system, MDCK cells, continuous infusion 168 hours, viral titer and sequencing", "format": "cell-based, Influenza A virus (H3N2)", "conditions": "for effect on viral titer: drug alone at low dose (amantadine 0.1 μg/mL; ribavirin 0.5 μg/mL); for concentrations at which the triple combination demonstrated synergism: hollow fiber, steady-state infusion"}, "[4]": {"system": "A/Victoria/3/75 (H3N2) virus", "experiment": "Mouse model of influenza infection, treatment initiated 24 or 48 hours after infection (Example 3B)", "format": "in vivo, mice", "conditions": "for weight loss: day 9"}, "[5]": {"system": "Influenza A/Victoria/3/75 (H3N2) virus", "experiment": "In vitro kinetic assay of mono and combination therapy in MDCK and SIAT-1 cells (viral load by CCID50, CPE scoring)", "format": "cell-based"}, "[6]": {"conditions": "amantadine 3 mg/ml, oseltamivir 10 or 30 mg/kg/day, ribavirin 7 or 21 mg/kg/day, monotherapy"}, "[7]": {"conditions": "molar equivalent of in vitro EC50, read-out: EC50, Target serum C"}, "[8]": {"conditions": "monotherapy, concentration of drug that reduces 50% of the virus at 72 hrs, read-out: EC50, In vitro C"}, "[9]": {"conditions": "drug alone at high dose (amantadine 1.0 μg/mL; ribavirin 5 μg/mL), 48 hours"}, "[10]": {"conditions": "treatment initiated 48 hours after infection"}},
  "note": "Read-outs that look alike come from different tables or passages of the source.",
  "data": [
    {"molecule": "NC12CC3CC(CC(C3)C1)C2", "note": "[Amantadine, 1-amino-adamantane]", "values": [
      {"measurement": "reduction in viral load", "setting": "[1]; amantadine monotherapy at 1 μg/ml", "value": "~60", "unit": "%"},
      {"measurement": "increase in sensitivity of the virus to the drug in triple combination compared to monotherapy", "setting": "[1]", "value": 10, "unit": "fold"},
      {"measurement": "concentration range at which synergy was seen", "setting": "[1]", "value": "0.1 to 1", "unit": "µg/mL"},
      {"measurement": "survival rate", "setting": "[2]; amantadine 3 mg/ml by Alzet pump (4 mg/kg/day), 3 survivors out of 11", "value": 27, "unit": "%"},
      {"measurement": "weight loss during the infection", "setting": "[2]; [6]", "value": "more substantial"},
      {"measurement": "protection (survival)", "setting": "[2]; amantadine 10 mg/ml by Alzet pump (13 mg/kg/day)", "value": 92, "unit": "%"},
      {"measurement": "weight loss during the infection", "setting": "[2]; amantadine 10 mg/ml monotherapy", "value": "minimal"},
      {"measurement": "mice protected, UK/EU mortality criteria (death=20% weight loss)", "setting": "[2]; mouse, in vivo", "value": 10, "unit": "%"},
      {"measurement": "times to death", "setting": "[2]; mouse, in vivo", "value": "significantly increased"},
      {"measurement": "EC50", "setting": "A/Albany/1/98 (H3N2); [7]", "value": 480, "unit": "nM"},
      {"measurement": "EC50", "setting": "A/Albany/1/98 (H3N2); [8]", "value": 91, "unit": "ng/mL"},
      {"measurement": "EC25, Target serum C", "setting": "A/Albany/1/98 (H3N2)", "value": 288, "unit": "nM"},
      {"measurement": "EC75, Target serum C", "setting": "A/Albany/1/98 (H3N2)", "value": 815, "unit": "nM"},
      {"measurement": "EC25, In vitro C", "setting": "A/Albany/1/98 (H3N2); monotherapy", "value": 54, "unit": "ng/mL"},
      {"measurement": "EC75, In vitro C", "setting": "A/Albany/1/98 (H3N2); monotherapy", "value": 153, "unit": "ng/mL"},
      {"measurement": "reduction in titer", "setting": "[3]; [9]", "value": "2-3 log"},
      {"measurement": "effect on viral titer", "setting": "[3]", "value": "negligible effect"},
      {"measurement": "concentrations at which the triple combination demonstrated synergism", "setting": "[3]", "value": "0.1 to 1", "unit": "µg/mL"},
      {"measurement": "mortality (UK/EU mortality criteria)", "setting": "[4]; mouse, in vivo", "value": 100, "unit": "%"},
      {"measurement": "weight loss", "setting": "[4]; [10]", "value": "~35", "unit": "%"},
      {"measurement": "time post infection until substantial cell death was seen", "setting": "[5]", "value": 144, "unit": "h"}
    ]},
    {"molecule": "CCOC(=O)C1=C[C@@H](OC(CC)CC)[C@H](NC(C)=O)[C@@H](N)C1", "note": "[Oseltamivir]", "values": [
      {"measurement": "increase in sensitivity of the virus to the drug in triple combination compared to monotherapy", "setting": "[1]", "value": "over 100 fold"},
      {"measurement": "concentration range at which synergy was seen", "setting": "[1]", "value": "0.001 to 0.032", "unit": "µg/mL"},
      {"measurement": "reduction in viral load", "setting": "[1]; oseltamivir monotherapy at 0.1 μg/ml", "value": "~50", "unit": "%"},
      {"measurement": "weight loss during the infection", "setting": "[2]; [6]", "value": "more substantial"},
      {"measurement": "mice protected, UK/EU mortality criteria (death=20% weight loss)", "setting": "[2]; oseltamivir 10 mg/kg/day, amantadine 3 mg/ml, ribavirin 7 mg/kg/day, as monotherapy or as triple combination at the same concentrations", "value": 40, "unit": "%"},
      {"measurement": "survival benefit", "setting": "[2]; oseltamivir monotherapy at 10 and 30 mg/kg/day oral gavage", "value": "92-100%"},
      {"measurement": "EC50", "setting": "A/Albany/1/98 (H3N2); 72 h, read-out: EC50, In vitro C", "value": 0.05, "unit": "ng/mL"},
      {"measurement": "EC50", "setting": "A/Albany/1/98 (H3N2); read-out: EC50, Target serum C", "value": 0.16, "unit": "nM"},
      {"measurement": "EC25, Target serum C", "setting": "A/Albany/1/98 (H3N2)", "value": 0.080, "unit": "nM"},
      {"measurement": "EC75, Target serum C", "setting": "A/Albany/1/98 (H3N2)", "value": 0.240, "unit": "nM"},
      {"measurement": "EC25, In vitro C", "setting": "A/Albany/1/98 (H3N2); monotherapy", "value": 0.025, "unit": "ng/mL"},
      {"measurement": "EC75, In vitro C", "setting": "A/Albany/1/98 (H3N2); monotherapy", "value": 0.075, "unit": "ng/mL"},
      {"measurement": "concentrations at which the triple combination demonstrated synergism", "setting": "[3]", "value": "0.001 to 0.01", "unit": "µg/mL"},
      {"measurement": "reduction in titer", "setting": "[3]; oseltamivir alone, both doses (1 and 10 ng/mL)", "value": "~1", "unit": "log"},
      {"measurement": "mortality (UK/EU mortality criteria)", "setting": "[4]; treatment initiated 24 hours after infection, by day 9, amantadine 28, oseltamivir 10 mg/kg/day", "value": 100, "unit": "%"},
      {"measurement": "weight loss", "setting": "[4]; [10]", "value": "~35", "unit": "%"}
    ]},
    {"molecule": "NC(=O)c1ncn([C@@H]2O[C@H](CO)[C@@H](O)[C@H]2O)n1", "note": "[Ribavirin]", "values": [
      {"measurement": "increase in sensitivity of the virus to the drug in triple combination compared to monotherapy", "setting": "[1]", "value": 100, "unit": "fold"},
      {"measurement": "concentration range at which synergy was seen", "setting": "[1]", "value": "0.032 to 1.0", "unit": "µg/mL"},
      {"measurement": "reduction in viral load", "setting": "[1]; ribavirin monotherapy at 1 μg/ml", "value": "approximately 10%"},
      {"measurement": "reduction in viral load", "setting": "[1]; ribavirin monotherapy at 3.2 μg/ml", "value": "~95", "unit": "%"},
      {"measurement": "weight loss during the infection", "setting": "[2]; [6]", "value": "more substantial"},
      {"measurement": "times to death", "setting": "[2]; mouse, in vivo", "value": "significantly increased"},
      {"measurement": "EC50", "setting": "A/Albany/1/98 (H3N2); [7]", "value": 1030, "unit": "nM"},
      {"measurement": "EC50", "setting": "A/Albany/1/98 (H3N2); [8]", "value": 420, "unit": "ng/mL"},
      {"measurement": "EC25, Target serum C", "setting": "A/Albany/1/98 (H3N2)", "value": 760, "unit": "nM"},
      {"measurement": "EC75, Target serum C", "setting": "A/Albany/1/98 (H3N2)", "value": 1500, "unit": "nM"},
      {"measurement": "EC25, In vitro C", "setting": "A/Albany/1/98 (H3N2); monotherapy", "value": 310, "unit": "ng/mL"},
      {"measurement": "EC75, In vitro C", "setting": "A/Albany/1/98 (H3N2); monotherapy", "value": 615, "unit": "ng/mL"},
      {"measurement": "reduction in titer", "setting": "[3]; [9]", "value": "~3", "unit": "log"},
      {"measurement": "effect on viral titer", "setting": "[3]", "value": "negligible effect"},
      {"measurement": "concentrations at which the triple combination demonstrated synergism", "setting": "[3]", "value": "0.5 to 5", "unit": "µg/mL"},
      {"measurement": "weight loss", "setting": "[4]; [10]", "value": "about 26%"},
      {"measurement": "weight as percent of original weight", "setting": "[4]; treatment initiated 48 hours after infection, day 13", "value": "approximately 80%"}
    ]}
  ]
}
